In one assay the target is T1, Human CARM1 (PRMT4) (Homo sapiens, UniProt Q86X55).
T1 construct: Flag-CARM1-His; made in house; host or cells: HEK 293F cells (BacMam baculovirus, pFastBacMam)
T1 sequence (Q86X55 2-585 isoform Q86X55-1): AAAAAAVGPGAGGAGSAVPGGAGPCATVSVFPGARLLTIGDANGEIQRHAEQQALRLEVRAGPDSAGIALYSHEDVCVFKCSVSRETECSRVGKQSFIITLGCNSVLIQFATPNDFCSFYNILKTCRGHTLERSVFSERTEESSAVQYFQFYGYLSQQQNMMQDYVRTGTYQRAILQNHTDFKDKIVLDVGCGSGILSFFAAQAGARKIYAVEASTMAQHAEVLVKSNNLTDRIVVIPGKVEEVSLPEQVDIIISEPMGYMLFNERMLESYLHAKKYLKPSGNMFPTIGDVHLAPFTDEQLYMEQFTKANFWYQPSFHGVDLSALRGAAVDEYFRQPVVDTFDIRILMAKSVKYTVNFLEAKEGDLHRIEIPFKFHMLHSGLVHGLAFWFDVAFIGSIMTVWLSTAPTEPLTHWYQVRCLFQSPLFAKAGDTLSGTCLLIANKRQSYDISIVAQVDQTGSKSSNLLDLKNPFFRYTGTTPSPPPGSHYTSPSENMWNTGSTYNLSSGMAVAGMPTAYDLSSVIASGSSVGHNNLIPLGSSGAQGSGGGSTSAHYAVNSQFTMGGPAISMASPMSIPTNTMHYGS
Briefly: CARM1 biochemical assay (3H-SAM Flashplate, peptide substrate). Conditions: read-out: CARM1_ IC50. In outline:
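FLAG/His-tagged human CARM1 (isoform 1, Δ539-561, baculovirus-expressed), 0.25 nM, preincubated 30 min at room temperature with compound (2% DMSO) in 20 mM Bicine pH 7.6, then reacted with 30 nM 3H-SAM and 250 nM biotinylated H3 16-30 peptide (R26 monomethyl). Stopped with 300 uM cold SAM; labelled peptide captured on streptavidin Flashplate; % inhibition versus DMSO and 1 mM SAH controls fitted to a 4- or 3-parameter curve.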

A further assay addresses PRMT5 (Homo sapiens, UniProt O14744). Briefly: PRMT5 IC50 (Table 2; no method described). The format is biochemical. Conditions: read-out: PRMT5_ IC50.

This is an account of results in US20170280720A1, “ARGININE […] INHIBITORS AND USES THEREOF” (EPIZYME, INC., priority 2014, published 2017).

Sequence of PRMT5 (O14744 whole entry, species assumed): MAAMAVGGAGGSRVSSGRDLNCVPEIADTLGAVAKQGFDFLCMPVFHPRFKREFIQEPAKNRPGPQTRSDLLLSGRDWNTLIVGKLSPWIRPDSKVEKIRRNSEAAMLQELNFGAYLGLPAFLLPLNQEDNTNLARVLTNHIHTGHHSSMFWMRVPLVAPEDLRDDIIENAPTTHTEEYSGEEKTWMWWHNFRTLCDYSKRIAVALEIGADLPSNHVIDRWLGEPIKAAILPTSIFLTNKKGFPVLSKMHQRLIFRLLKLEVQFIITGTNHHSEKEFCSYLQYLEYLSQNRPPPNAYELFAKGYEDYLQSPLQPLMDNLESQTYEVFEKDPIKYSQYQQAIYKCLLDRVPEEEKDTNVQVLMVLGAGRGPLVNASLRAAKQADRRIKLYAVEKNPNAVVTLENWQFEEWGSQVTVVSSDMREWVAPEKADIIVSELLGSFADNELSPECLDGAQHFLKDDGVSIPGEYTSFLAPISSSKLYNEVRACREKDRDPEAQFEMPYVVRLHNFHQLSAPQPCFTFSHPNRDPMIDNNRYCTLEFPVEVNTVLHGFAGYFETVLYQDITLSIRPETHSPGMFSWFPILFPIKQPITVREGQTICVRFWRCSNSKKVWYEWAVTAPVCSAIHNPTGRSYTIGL
Sequence of PRMT5 (Q9BQA1 whole entry partner, species assumed): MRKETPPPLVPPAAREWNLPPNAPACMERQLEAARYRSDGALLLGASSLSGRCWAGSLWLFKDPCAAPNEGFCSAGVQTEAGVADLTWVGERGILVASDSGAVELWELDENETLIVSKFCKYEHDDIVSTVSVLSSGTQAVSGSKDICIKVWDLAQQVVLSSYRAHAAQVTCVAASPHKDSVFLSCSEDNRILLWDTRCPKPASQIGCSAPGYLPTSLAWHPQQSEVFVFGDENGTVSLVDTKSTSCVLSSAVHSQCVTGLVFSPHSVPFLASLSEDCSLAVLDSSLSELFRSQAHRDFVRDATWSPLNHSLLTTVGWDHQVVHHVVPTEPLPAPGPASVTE

By IC50 is commonly meant the concentration that gives 50% inhibition. As to `CNCCN(C)Cc1ccc(-c2cc(C(=O)NCc3c(C)cc(C)[nH]c3=O)c(C)c3nn(C4CCCC4)cc23)cc1` [Compound 370], on Human CARM1 (PRMT4), the half-inhibitory concentration (IC50) amounted to 7.26 µM.
Regarding `CNCCN(C)Cc1cccc(-c2nc(C(=O)NCc3cn4ccsc4n3)c3cnn(C4CC4)c3n2)c1` [Compound 180], the IC50 on Human CARM1 (PRMT4) was 0.0089 µM; at PRMT5, 200 µM.
Turning to `CNCCN(C)Cc1cccc(-c2cc(C(=O)N(C)Cc3ccccn3)c3cnn(C(C)C)c3n2)c1` [Compound 300], the IC50 worked out at 0.205 µM on Human CARM1 (PRMT4) and 34.3 µM at PRMT5.
In the case of `Cc1cc(C)c(CNC(=O)c2cc(-c3cccc(CNCCN)c3)nc3c2cnn3C(C)C)c(=O)[nH]1` [Compound 365], the figures for the half-inhibitory concentration (IC50) at Human CARM1 (PRMT4) and at PRMT5 were 0.0144 µM and 49 µM, respectively.
In the case of `CNCCN(C)Cc1cccc(-c2cc(C(=O)NCCC(=O)NCc3c(C)cc(C)[nH]c3=O)c3cnn(C(C)C)c3n2)c1` [Compound 384], the half-maximal inhibitory concentration (IC50) on Human CARM1 (PRMT4) was determined as 0.0188 µM.
Take `Cc1cc(C)c(CNC(=O)c2cc(-c3cccc(CN(C)CCN(C)C)c3)nc3c2cnn3C(C)C)c(=O)[nH]1` [Compound 361]: the half-maximal inhibitory concentration (IC50) on Human CARM1 (PRMT4) was determined as 0.254 µM.
As for `Cc1cc(C)c(CNC(=O)c2cc(CNCCN(C)C)cc3c2cnn3C2CCCC2)c(=O)[nH]1` [Compound 371], the IC50 at Human CARM1 (PRMT4) turned out to be 28.3 µM.
Same read-out and setting: the value for `CNCCN(C)Cc1cccc(-c2cc(C(=O)NCc3c(C)cc(C)[nH]c3=O)c(C)c3[nH]ncc23)c1` [Compound 372] was 4.31 µM.
With `COc1nc(C)cc(C)c1CNC(=O)c1cc(-c2cccc(CN(C)CCN(C)C)c2)nc2c1cnn2C(C)C` [Compound 386], the IC50 on Human CARM1 (PRMT4) is 0.209 µM.
`COc1nc(C)cc(C)c1CNC(=O)c1cc(-c2cccc(CNCCN)c2)nc2c1cnn2C(C)C` [Compound 391]: the IC50 was 0.141 µM at Human CARM1 (PRMT4) and 30.5 µM at PRMT5.
For `CNCCN(C)Cc1cccc(-c2cc(C(=O)NCc3ccncc3)c3cnn(C(C)C)c3n2)c1` [Compound 182] the same measures were 0.0103 µM and 12.1 µM.
`CNCCN(C)Cc1cccc(-c2cc(C(=O)NCc3c(C)cc(C)[nH]c3=O)c3cnn(C(C)C)c3n2)c1` [Compound 368]: the half-maximal inhibitory concentration (IC50) on Human CARM1 (PRMT4) was found to be 0.00611 µM.
As to `Cc1cc(C)c(CNC(=O)c2cc(-c3cccc(CNCCN)c3)cc3[nH]ncc23)c(=O)[nH]1` [Compound 366], the IC50 was 1.39 µM on Human CARM1 (PRMT4) and 4.2 µM at PRMT5.
In the case of `CNCCN(C)Cc1cccc(-c2cc(C(=O)NCCCCC(=O)NCc3c(C)cc(C)[nH]c3=O)c3cnn(C(C)C)c3n2)c1` [Compound 385], the IC50 at Human CARM1 (PRMT4) was 0.00711 µM.
For `Cc1cc(C)c(CNC(=O)c2cc(-c3ccc(CNCCN(C)C)cc3)nc3c2cnn3C(C)C)c(=O)[nH]1` [Compound 359], the IC50 on Human CARM1 (PRMT4) was found to be 50 µM.
Same read-out and setting: then `CNCCN(C)Cc1cccc(-c2cc(C(=O)NCCCC(=O)NCc3c(C)cc(C)[nH]c3=O)c3cnn(C(C)C)c3n2)c1` [Compound 383], with 0.00839 µM.
`Cc1cc(C)c(CNC(=O)c2cncc(-c3ccc(CNCCN)cc3)c2)c(=O)[nH]1` [Compound 379]: the values for the IC50 at Human CARM1 (PRMT4) and on PRMT5 were 6.57 µM and 2.12 µM, respectively.
With `CNCCN(C)Cc1cccc(-c2nc(NCc3nccs3)c3cnn(C4CC4)c3n2)c1` [Compound 2], the half-maximal inhibitory concentration (IC50) at Human CARM1 (PRMT4) was 0.0168 µM.
For `CNCCN(C)Cc1ccc(-c2cc(C(=O)NCc3c(C)cc(C)[nH]c3=O)c(C)c3n[nH]cc23)cc1` [Compound 362], on Human CARM1 (PRMT4), the half-inhibitory concentration (IC50) was determined as 1.98 µM.
For `CC(C)n1ncc2c(C(=O)N(C)CC3CCOCC3)cc(-c3cccc(CN(C)CCN)c3)nc21` [Compound 256], the IC50 amounted to 0.0631 µM on Human CARM1 (PRMT4) and 50 µM at PRMT5.
With `CNCCN(C)Cc1ccc(-c2cncc(C(=O)NCc3c(C)cc(C)[nH]c3=O)c2)cc1` [Compound 373], the IC50 at Human CARM1 (PRMT4) was found to be 5.77 µM; on PRMT5 it was 14.7 µM.
For `Cc1cc(C)c(CNC(=O)c2cc(-c3cccc(CN(C)CCN)c3)nc3c2cnn3C(C)C)c(=O)[nH]1` [Compound 360], in that order: 0.0195 µM and 15.4 µM.
Regarding `CN(CCN)Cc1cccc(-c2ccc(C(=O)NCC3CCOCC3)c(N(C)CC3CC3)c2)c1` [Compound 263], the values for the IC50 at Human CARM1 (PRMT4) and at PRMT5 were 0.0722 µM and 7.73 µM, respectively.
Consider `Cc1cc(C)c(CNC(=O)c2cncc(-c3ccc(CN(C)CCN)cc3)c2)c(=O)[nH]1` [Compound 374], for which the figures for the IC50 at Human CARM1 (PRMT4) and on PRMT5 were 9.83 µM and 44.3 µM, respectively.
With `CNCCN(C)Cc1cccc(-c2cc(C(=O)NCc3c(C)cc(C)[nH]c3=O)c3cnn(C(C)C)c3c2)c1` [Compound 367], the IC50 at Human CARM1 (PRMT4) was determined as 0.184 µM.
On to `Cc1cc(C)c(CNC(=O)c2cncc(-c3ccc(CN(C)CCN(C)C)cc3)c2)c(=O)[nH]1` [Compound 378], for which the IC50 on Human CARM1 (PRMT4) was 19.6 µM; on PRMT5, 66.6 µM.
Regarding `CNCCN(C)Cc1cccc(-c2cc(C(=O)NCCCCCC(=O)NCc3c(C)cc(C)[nH]c3=O)c3cnn(C(C)C)c3n2)c1` [Compound 382], at Human CARM1 (PRMT4), the IC50 came out at 0.00901 µM.
